One block for each compound: values may come before it.
How the values were obtained:
[1] = tested on: SREBP-1c expression; experiment: Real-time PCR of SREBP-1c expression in HepG2 cells; assay type: cell-based, human; details: 100 nM, 24 hours, versus untreated
Method: Real time PCR was then performed on cDNA derived from RNA isolated form the treated HepG2 cells as follows. Real time quantitative PCR assays were performed using an Applied Biosystems 7700 sequence detector (Applied Biosystems). Each reaction mixture contained 50 ng cDNA, 1.25 pmol each forward and reverse primer, and […] 2× SYBR Green PCR master mix (Applied Biosystems) in a final volume of 25 μl. The PCR conditions were 50° C. for 2 min, 95° C. for 10 min, and 40 cycles of 95° C. for 15 sec and 60° C. for 1 min. Samples were run in duplicate for each primer pair. Expression of glyceraldehyde-3-phosphate dehydrogenase (GAPDH) was analyzed in parallel as an internal control. Each sample was normalized to GAPDH and is represented in the Figure showing the results as arbitrary units with the expression levels in untreated cells assigned a value of one. The primer sequences are as follows: human SREBP-1c forward [NT] ID NO:1); human SREBP-1c reverse [NT] ID NO:2); human GAPDH forward [NT] ID NO:3) and human GAPDH reverse [NT] ID NO:4).

[2] = tested on: NIH3T3-L1 adipocytes; experiment: Triglyceride content (Nile Red) of NIH3T3-L1 cells differentiated to adipocytes; assay type: cell-based; details: T0901317 200 nM or Clotrimazole 7.5 μm, 7 days
Method: NIH 3T3-L1 cells were maintained in growth media consisting of Dulbecco's modified Eagle's medium (DMEM) supplemented with 10% calf bovine serum (CBS), 50 U/ml penicillin G and 50 μg/ml streptomycin sulfate. To induce NIH 3T3-L1 differentiation into adipocytes, confluent cells were transferred from their growth media to DMEM containing 10% fetal bovine serum (FBS), 5 μg/ml insulin, 0.5 mM 3-isobutyl-1-methylxanthine (IBMX) and 1 μM dexamethasone for 7 days. During the differentiation period, cells also optionally received 200 nM T0901317, 7.5 μM Clotrimazole or both.
NIH3T3-L1 cells were allowed to differentiate for 7 days in the presence of a well-established differentiation cocktail containing dexamethazole (1 μm), IBMX (0.5 mM) and insulin (5 μg/ml) in the absence or presence of T0901317 (200 nM) or Clotrimazole (7.5 μm). The cells then were fixed and stained with Nile Red, which stains triglycerides (TG) green, and DAPI to visualize nuclei (in blue). TG content of the cell reflected increased or decreased lipogenesis.

[3] = mice fed the agonist; cited from earlier work
[4] = target: T1, human LXRα (Homo sapiens, UniProt Q13133); experiment: Full-length hLXRα/hRXRα LXREx3 TK-Luc reporter assay in transfected CV-1 cells; assay type: cell-based; details: 20 μM, 40 hours
T1 construct: expressed in transfected cells; host or cells: CV-1 cells
T1 sequence (Q13133 1-447): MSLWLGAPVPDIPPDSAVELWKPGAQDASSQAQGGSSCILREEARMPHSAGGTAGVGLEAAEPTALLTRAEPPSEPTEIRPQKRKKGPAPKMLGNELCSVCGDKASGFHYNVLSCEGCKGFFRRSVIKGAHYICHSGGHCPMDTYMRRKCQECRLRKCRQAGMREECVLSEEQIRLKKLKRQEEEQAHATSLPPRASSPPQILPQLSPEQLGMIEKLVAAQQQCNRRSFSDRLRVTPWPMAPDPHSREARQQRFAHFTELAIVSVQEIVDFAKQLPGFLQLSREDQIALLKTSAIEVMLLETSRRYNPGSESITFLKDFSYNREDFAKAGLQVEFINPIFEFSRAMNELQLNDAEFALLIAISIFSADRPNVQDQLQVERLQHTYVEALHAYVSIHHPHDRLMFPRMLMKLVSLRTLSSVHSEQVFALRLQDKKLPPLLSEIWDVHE
T1 sequence (P19793 1-462 partner): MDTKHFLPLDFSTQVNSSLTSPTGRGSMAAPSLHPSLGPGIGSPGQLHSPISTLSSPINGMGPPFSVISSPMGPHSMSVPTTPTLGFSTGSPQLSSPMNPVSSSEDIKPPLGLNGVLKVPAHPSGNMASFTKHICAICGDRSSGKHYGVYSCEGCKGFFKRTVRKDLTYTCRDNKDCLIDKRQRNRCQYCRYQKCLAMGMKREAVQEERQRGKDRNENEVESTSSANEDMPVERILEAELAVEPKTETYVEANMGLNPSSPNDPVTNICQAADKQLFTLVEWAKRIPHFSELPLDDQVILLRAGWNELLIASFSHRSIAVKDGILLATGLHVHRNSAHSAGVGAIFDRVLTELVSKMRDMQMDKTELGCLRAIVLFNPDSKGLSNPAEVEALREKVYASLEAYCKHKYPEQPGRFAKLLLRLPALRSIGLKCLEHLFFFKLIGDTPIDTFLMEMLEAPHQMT
Method: CV-1 cells were grown in DMEM supplemented with 10% resin-charcoal stripped fetal bovine serum, 50 U/ml penicillin G and 50 μg/ml streptomycin sulfate at 37° C. in 5% CO2. Cells were plated to 50-80% confluence one day prior to transfection using phenol red-free DMEM-FBS. The cells were transfected by lipofection using N-[1-(2,3-dioleoyloxy)propyl]-N,N,N-ammonium methyl sulfate according to manufacturer's instructions (Boehringer Mannheim).
Genes encoding the following full-length proteins, which are suitable for use in the studies described herein, were cloned into pCMX: human RXRα (Gene Bank accession X52773) and human LXRα (GenBank accession U22662). The cells were transfected with CMX-βgal and luciferase constructs. The CMX-βGal construct contained the ligand binding domain of human RXR (hRXRα) and the ligand binding domain of human LXRα (hLXRα) as indicated in FIG. 1. The luciferase reporter construct (LXREx3 TK-Luc) contained the herpes virus thymidine kinase promoter (−105/+51) linked to three copies of the response element LXRE. After transfection, the cells were treated with 20 μM of a synthetic azole test compound or vehicle alone for 40 hours in phenol red-free DMEM-FBS.

[5] = target: LXRα (Homo sapiens, UniProt Q13133); experiment: LXR activity, fatty acids

SMILES: O=S(=O)(c1ccccc1)N(CC(F)(F)F)c1ccc(C(O)(C(F)(F)F)C(F)(F)F)cc1 [T0901317]
- increase of SREBP-1c expression [1]: up to 4 fold
- TG content compared to differentiation cocktail only [2]: small overall increase in TG content
- plasma triglycerides compared to mice fed a control diet [3]: elevated plasma triglycerides

- antagonism of constitutive activation mediated by LXR (hLXRα activity, LXREx3 TK-Luc) [4]: inactive
SMILES: CC(=O)N1CCN(c2ccc(OCC3COC(Cn4ccnc4)(c4ccc(Cl)cc4Cl)O3)cc2)CC1 (centres unmarked) [ketonazole]

- effect on LXR activity [5]: LXR antagonist
SMILES: CC/C=C\C/C=C\C/C=C\CCCCCCCC(=O)O [αlinoleic acid]

Source: US20050009837A1, “Modulators of lipid metabolism and methods of use” (City of Hope, priority 2003, published 2005)
